Earlier results on two compounds are cited in patent publication US20080255091A1, “COMPOUNDS TO TREAT AMYLOIDOSIS AND PREVENT DEATH OF BETA-CELLS IN TYPE 2 DIABETES MELLITUS” (ASTRUM THERAPEUTICS PTY LTD., priority 2005, published 2008).

The subject of this series is β-cell death induced by a fibrillogenic form of IAPP.

Turning to `Nc1c(/N=N/c2ccc(-c3ccc(/N=N/c4cc(S(=O)(=O)O)c5ccccc5c4N)cc3)cc2)cc(S(=O)(=O)O)c2ccccc12` [Congo Red], the “prevention of β-cell death induced by a fibrillogenic form of IAPP” value is given as “completely or partially prevented”. As for “SNNFGA: the peptide SNNFGA, anti-amyloidosis agent from the literature (Islet amyloid polypeptide; UniProt P10997 53-58, looked up, fragment)”, the “prevention of β-cell death induced by a fibrillogenic form of IAPP” value was “completely or partially prevented”.
